Key:
[1] = system: B16F10 cells; assay: MTT cell activity, MITF-dependent melanoma cell line B16F10; type: cell-based; conditions: Mus musculus, B16-F10, MITF-dependent and highly expressed, read-out: IC50 of inhibiting growth of B16F10 cells
Protocol: (§1) The active TT012 was incubated with MITF-dependent and highly expressed melanoma cell line B16F10, the melanoma cell line A375 with low expression of MITF, and control cell line Hela, respectively, and cell activity was detected by MTT experiment.

[2] = system: MITF landmark downstream genes-TYR and TRPM1; assay: Fluorescent quantitative RT-PCR of MITF downstream genes in B16F10 cells; type: cell-based; conditions: Mus musculus, B16-F10, B16F10 cell line, read-out: IC50 of inhibiting mRNA levels of TYR and TRPM1
Protocol: TT-012 was incubated with melanoma cell B16F10 cell line, mRNA was extracted and reverse transcripted, and the transcription of MITF landmark downstream genes-TYR (tyrosinase) and TRPM1 (transient receptor potential cation channel M1) were detected by fluorescent quantitative PCR.

[3] = system: Hela cells; assay: MTT cell activity, control cell line Hela; type: cell-based
Protocol: as §1

[4] = target: T1, MITF dimer (Homo sapiens, UniProt O75030); assay: AlphaScreen high-throughput screening model MIDAS (MITF Dependent Alpha-Screen), MITF dimer formation; type: binding; conditions: read-out: IC50 of inhibiting formation of MITF dimer
T1 sequence (O75030 1-526): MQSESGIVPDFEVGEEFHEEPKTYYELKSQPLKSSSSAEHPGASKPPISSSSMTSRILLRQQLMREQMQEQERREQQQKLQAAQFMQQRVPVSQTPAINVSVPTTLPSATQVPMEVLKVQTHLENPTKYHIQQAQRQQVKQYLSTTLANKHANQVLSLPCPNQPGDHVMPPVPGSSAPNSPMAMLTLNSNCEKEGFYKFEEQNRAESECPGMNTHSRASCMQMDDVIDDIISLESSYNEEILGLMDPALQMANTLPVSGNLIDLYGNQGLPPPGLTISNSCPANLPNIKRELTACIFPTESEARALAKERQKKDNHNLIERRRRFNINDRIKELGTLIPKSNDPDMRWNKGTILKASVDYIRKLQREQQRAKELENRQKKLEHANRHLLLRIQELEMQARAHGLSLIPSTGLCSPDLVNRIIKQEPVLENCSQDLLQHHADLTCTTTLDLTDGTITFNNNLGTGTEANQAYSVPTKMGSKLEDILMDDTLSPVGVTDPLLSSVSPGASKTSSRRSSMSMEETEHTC
From the text: In the AlphaScreen high-throughput screening model MIDAS (MITF Dependent Alpha-Screen), MITF was labeled with a Biotin tag recognized by Alpha donor beads and a His tag recognized by Alpha receptor beads, respectively. When MITF formed a dimer, Alpha Donor beads and Alpha Receptor beads were pulled close to each other and detected by 680 nm excitation light and 520-620 nm emission light, thereby monitoring the formation of MITF dimer.

[5] = system: A375 cells; assay: MTT cell activity, melanoma cell line A375 with low expression of MITF; type: cell-based
Protocol: as §1

[6] = target: LysRS-p38 interaction (Homo sapiens, UniProt Q13155+Q15046); assay: AlphaScreen control test, LysRS-p38 interaction; type: binding
Chain of LysRS-p38 interaction (Q15046 whole entry): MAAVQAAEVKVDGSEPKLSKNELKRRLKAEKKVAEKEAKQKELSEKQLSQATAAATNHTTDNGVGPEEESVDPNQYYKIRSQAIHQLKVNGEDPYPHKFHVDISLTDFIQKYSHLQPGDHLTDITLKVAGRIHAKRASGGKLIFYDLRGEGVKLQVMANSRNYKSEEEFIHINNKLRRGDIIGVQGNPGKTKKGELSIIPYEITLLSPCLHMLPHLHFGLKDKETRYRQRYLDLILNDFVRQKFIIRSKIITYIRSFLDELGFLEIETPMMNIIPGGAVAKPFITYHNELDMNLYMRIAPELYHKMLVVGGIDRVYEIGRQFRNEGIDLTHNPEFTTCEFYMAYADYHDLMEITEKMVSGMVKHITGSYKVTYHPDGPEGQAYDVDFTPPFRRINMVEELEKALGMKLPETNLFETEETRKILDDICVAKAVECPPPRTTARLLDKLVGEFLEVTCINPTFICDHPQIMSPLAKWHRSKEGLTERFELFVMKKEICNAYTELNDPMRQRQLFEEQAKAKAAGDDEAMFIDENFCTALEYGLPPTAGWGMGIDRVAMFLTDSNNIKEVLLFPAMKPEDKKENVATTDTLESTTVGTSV
Chain of LysRS-p38 interaction (Q13155 whole entry): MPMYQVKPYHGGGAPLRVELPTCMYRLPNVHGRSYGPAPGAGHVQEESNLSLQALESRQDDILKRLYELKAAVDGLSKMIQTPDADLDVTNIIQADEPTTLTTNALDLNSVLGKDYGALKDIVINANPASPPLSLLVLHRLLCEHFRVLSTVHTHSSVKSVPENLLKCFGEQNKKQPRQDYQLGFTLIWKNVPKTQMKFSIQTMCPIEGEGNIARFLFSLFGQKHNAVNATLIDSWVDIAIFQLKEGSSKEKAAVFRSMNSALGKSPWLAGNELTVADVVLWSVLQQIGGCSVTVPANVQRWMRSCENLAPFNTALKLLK

[7] = system: melanin formation; assay: Forskolin-induced melanin production; type: cell-based
From the text: MITF regulated the transcription and expression of melanin synthase TYR, TYRP1, and is the main regulatory factor of melanin formation. Foskolin, a small molecule compound, could regulate pathway, promote the expression of MITF, and promote melanin production by activating MSH-cAMP-CREB.

- IC50 [1]: 300 nM
- IC50 [2]: 2000 nM
- IC50 [4]: 10 nM
- effect on AlphaScreen signal of LysRS-p38 interaction [6]: not affect
Structure (SMILES): O=C(/C=C/c1ccco1)Nc1cccc(NC(=O)/C=C/c2ccco2)n1 [TT-012]
- killing effect on control cells HELA [3]: no killing effects
- killing effect on A375 cells [5]: no killing effects
- inhibition of melanin formation [7]: effectively inhibit

— patent US11077097B2, “Use of aromatic ring drug in inhibiting key transcription factor of malignant melanoma” (SHANGHAI INSTITUTE OF ORGANIC CHEMISTRY, CHINESE ACADEMY OF …, priority 2017, dated 2021)
